Test results published in patent publication US12139499B2, “Heteroaryl compounds for treating Huntington's disease” (PTC THERAPEUTICS, INC., priority 2018, dated 2024).

Test system: Endogenous Huntingtin Protein
Assay: Endogenous Huntingtin Protein Assay (ELISA-based MSD electrochemiluminescence)
Format: cell-based
Conditions: Table 1
How it was run: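 Huntingtin was captured overnight at 4 °C on plates coated with 1 μg/mL MW1 (polyQ-expanded) or MAB2166 antibody and BSA-blocked. Detection used a rabbit monoclonal and then a SULFO-TAG goat anti-rabbit antibody (0.25 μg/mL, 1 h each, room temperature). Signal was read by electrochemiluminescence.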

IC50 | SMILES
100 to 500 nM | Oc1cc(-c2cn[nH]c2)ccc1-c1cc2sc(N3CCNCC3)nc2nn1 [Compound 334, 2-[6-(piperazin-1-yl)[1,3]thiazolo[4,5-c]pyridazin-3-yl]-5-(1H-pyrazol-4-yl)phenol]
1000 to 3000 nM | CN1C[C@H](F)[C@H](Nc2nc3nnc(-c4ccc(-c5cn[nH]c5)cc4O)cc3s2)C1 [Compound 336, 2-(6-{[(3R,4S)-4-fluoro-1-methylpyrrolidin-3-yl]amino}[1,3]thiazolo[4,5-c]pyridazin-3-yl)-5-(1H-pyrazol-4-yl)phenol]
500 to 1000 nM | CC1(C)C=C(c2cc3sc(-c4ccc(-c5cn[nH]c5)cc4O)nc3cn2)CC(C)(C)N1 [Compound 337, 5-(1H-pyrazol-4-yl)-2-[6-(2,2,6,6-tetramethyl-1,2,3,6-tetrahydropyridin-4-yl)[1,3]thiazolo[4,5-c]pyridin-2-yl]phenol]
500 to 1000 nM | Oc1cc(-c2cn[nH]c2)ccc1-c1cc2sc(N3CC4(CCCNC4)C3)nc2nn1 [Compound 338, 2-[6-(2,6-diazaspiro[3.5]nonan-2-yl)[1,3]thiazolo[4,5-c]pyridazin-3-yl]-5-(1H-pyrazol-4-yl)phenol]
≤ 100 nM | CN1CCC2(CC1)CCN2c1nc2nnc(-c3ccc(-c4cn[nH]c4)cc3O)cc2s1 [Compound 339, 2-[6-(7-methyl-1,7-diazaspiro[3.5]nonan-1-yl)[1,3]thiazolo[4,5-c]pyridazin-3-yl]-5-(1H-pyrazol-4-yl)phenol]
1000 to 3000 nM | CN1CCC2(CCN(c3nc4nnc(-c5ccc(-c6cn[nH]c6)cc5O)cc4s3)C2)C1 (centres unmarked) [Compound 340, 2-[6-(7-methyl-2,7-diazaspiro[4.4]nonan-2-yl)[1,3]thiazolo[4.5-c]pyridazin-3-yl]-5-(1H-pyrazol-4-yl)phenol]
500 to 1000 nM | Oc1cc(-c2c[nH]nc2F)ccc1-c1cc2sc(N3CC4(CCNCC4)C3)nc2nn1 [Compound 341, 2-[6-(2,7-diazaspiro[3.5]nonan-2-yl)[1,3]thiazolo[4,5-c]pyridazin-3-yl]-5-(3-fluoro-1H-pyrazol-4-yl)phenol]
100 to 500 nM | CN1C[C@H](Nc2nc3nnc(-c4ccc(-c5cn[nH]c5)cc4O)cc3s2)[C@@H](F)C1 [Compound 342, 2-(6-{[(3S,4S)-4-fluoro-1-methylpyrrolidin-3-yl]amino}[1,3]thiazolo[4,5-c]pyridazin-3-yl)-5-(1H-pyrazol-4-yl)phenol]
100 to 500 nM | CN1CC(N(C)c2nc3nnc(-c4ccc(-c5cn[nH]c5)cc4O)cc3s2)C1 [Compound 343, 2-{6-[methyl(1-methylazetidin-3-yl)amino][1,3]thiazolo[4,5-c]pyridazin-3-yl}-5-(1H-pyrazol-4-yl)phenol]
≤ 100 nM | Oc1cc(-c2cn[nH]c2)ccc1-c1cc2sc(N3CC[C@H]4CNCC[C@H]43)nc2nn1 [Compound 344, 2-{6-[(3aS,7aR)-octahydro-1H-pyrrolo[3,2-c]pyridin-1-yl][1,3]thiazolo[4,5-c]pyridazin-3-yl]-5-(1H-pyrazol-4-yl)phenol]

SMILES | IC50
CN(c1nc2nnc(-c3cc(F)c(-c4cn[nH]c4)cc3F)cc2s1)C1CCNCC1 [Compound 328, 3-[2,5-difluoro-4-(1H-pyrazol-4-yl)phenyl]-N-methyl-N-(piperidin-4-yl)[1,3]thiazolo[4,5-c]pyridazin-6-amine] | 100 to 500 nM
CN(c1nc2nnc(-c3ccc(-c4c[nH]nc4F)cc3O)cc2s1)C1CCNCC1 [Compound 329, 5-(3-fluoro-1H-pyrazol-4-yl)-2-{6-[methyl(piperidin-4-yl)amino][1,3]thiazolo[4,5-c]pyridazin-3-yl}phenol] | ≤ 100 nM
CN1CCC(N(C)c2nc3nnc(-c4ccc(-c5c[nH]nc5F)cc4O)cc3s2)CC1 [Compound 332, 5-(3-fluoro-1H-pyrazol-4-yl)-2-{6-[methyl(1-methylpiperidin-4-yl)amino][1,3]thiazolo[4,5-c]pyridazin-3-yl}phenol] | ≤ 100 nM
Oc1cc(-c2cn[nH]c2)ccc1-c1nc2cnc(C3=CCNCC3)cc2s1 [Compound 335, 5-(1H-pyrazol-4-yl)-2-[6-(1,2,3,6-tetrahydropyridin-4-yl)[1,3]thiazolo[4,5-c]pyridin-2-yl]phenol] | 1000 to 3000 nM
